One assay addresses T1, JAK3 (Homo sapiens, UniProt P52333).
T1 construct: purchased Life technology
T1 sequence (P52333 1-1124): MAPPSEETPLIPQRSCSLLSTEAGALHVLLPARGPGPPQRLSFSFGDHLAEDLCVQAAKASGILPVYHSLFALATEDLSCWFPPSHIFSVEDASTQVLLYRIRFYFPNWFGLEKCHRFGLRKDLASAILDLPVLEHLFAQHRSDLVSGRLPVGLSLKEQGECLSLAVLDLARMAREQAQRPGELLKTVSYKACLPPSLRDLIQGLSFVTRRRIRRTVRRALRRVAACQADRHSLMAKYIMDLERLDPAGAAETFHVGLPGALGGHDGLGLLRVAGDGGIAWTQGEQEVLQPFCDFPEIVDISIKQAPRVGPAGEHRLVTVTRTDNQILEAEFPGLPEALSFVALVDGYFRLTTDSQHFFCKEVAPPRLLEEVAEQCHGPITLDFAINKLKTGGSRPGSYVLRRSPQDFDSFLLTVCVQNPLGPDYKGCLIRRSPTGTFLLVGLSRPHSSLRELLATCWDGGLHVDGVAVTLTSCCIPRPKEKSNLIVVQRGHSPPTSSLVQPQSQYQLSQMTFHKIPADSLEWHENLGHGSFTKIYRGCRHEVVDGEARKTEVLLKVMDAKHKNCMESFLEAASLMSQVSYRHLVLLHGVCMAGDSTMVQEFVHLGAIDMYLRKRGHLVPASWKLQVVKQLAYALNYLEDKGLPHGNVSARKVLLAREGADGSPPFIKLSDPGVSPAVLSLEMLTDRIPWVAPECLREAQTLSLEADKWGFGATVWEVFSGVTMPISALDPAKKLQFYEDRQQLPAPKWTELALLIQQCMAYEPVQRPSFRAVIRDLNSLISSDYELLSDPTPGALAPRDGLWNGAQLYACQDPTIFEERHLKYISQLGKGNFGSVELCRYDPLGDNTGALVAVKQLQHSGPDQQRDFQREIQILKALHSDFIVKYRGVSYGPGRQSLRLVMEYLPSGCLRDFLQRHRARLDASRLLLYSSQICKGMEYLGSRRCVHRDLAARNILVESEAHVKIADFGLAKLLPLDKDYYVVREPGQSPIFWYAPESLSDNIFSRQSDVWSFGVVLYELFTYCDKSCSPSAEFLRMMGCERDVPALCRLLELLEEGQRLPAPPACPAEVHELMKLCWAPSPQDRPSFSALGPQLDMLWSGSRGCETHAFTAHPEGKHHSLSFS
Put plainly: In vitro activity test of JAK3 kinase (LANCE Ultra TR-FRET).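 Also: recombinant human JAK3 phosphorylating ULight-JAK-1(Tyr1023) peptide at 4 µM ATP, with 1% DMSO, detected by Eu-anti-phosphotyrosine TR-FRET on Envision and converted to percent inhibition.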 The assay is classed as biochemical.

The target of the next assay is JAK2 protein kinase (Homo sapiens, UniProt O60674). The assay is described as follows: biochemical. The settings on record: 12 uM ATP, 60 min.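 Also: recombinant human JAK2 with ULight-labelled JAK-1(Tyr1023) peptide substrate, phosphorylation detected by TR-FRET using Eu-labelled anti-phosphotyrosine antibody, 1% DMSO.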
A further assay deals with JAK1 protein kinase (Homo sapiens, UniProt P23458). Put plainly: biochemical. The settings on record: 38 uM ATP, 90 min. How it is done:
In Vitro Activity Test of Jak1, Jak 2 and Jak 3 Kinase
Recombinant humanized JAK1, JAK2 and JAK3 […] were all purchased from Life technology. LANCE Ultra ULight™-JAK-1(Tyr1023) peptide and LANCE Eu-W1024 Anti-phosphotyrosine (PT66) were both purchased from PerkinElmer. Envision (PerkinElmer) was used to read a plate.
Three dilution of a test compound was prepared, and 11 final concentrations were obtained: 10 uM to 0.17 nM. Each concentration had two repeat wells. The content of DMSO in a detection reaction was 1%.
2 nM JAK1 protein kinase, 50 nM LANCE Ultra ULight™-JAK-1(Tyr1023) peptide, 38 uM ATP, 50 mM HEPES (pH7.5), 10 mM MgCl2, 1 mM EGTA, 2 mM DTT, and 0.01% BRIJ-35. Detection plate was White Proxiplate 384-Plus plate (PerkinElmer), the reaction was conducted for 90 min at room temperature, and reaction system was 10 ul.
10 ul detection reagent was added into the reaction plate, wherein the final concentration of LANCE Eu-W1024 Anti-phosphotyrosine (PT66) was 2 nM, the final concentration of EDTA was 10 mM, incubation was conducted for 60 min at room temperature, and the plate was read by the Envision.
The reading was converted into a suppression ratio as follow equation: (%)=([…])/(Max−Min)*100%. IC50 data was detected by 4 parametric curve fitting (Model 205 in XLFIT5, iDBS), see Table 1.

Sequence of JAK2 protein kinase (O60674 whole entry): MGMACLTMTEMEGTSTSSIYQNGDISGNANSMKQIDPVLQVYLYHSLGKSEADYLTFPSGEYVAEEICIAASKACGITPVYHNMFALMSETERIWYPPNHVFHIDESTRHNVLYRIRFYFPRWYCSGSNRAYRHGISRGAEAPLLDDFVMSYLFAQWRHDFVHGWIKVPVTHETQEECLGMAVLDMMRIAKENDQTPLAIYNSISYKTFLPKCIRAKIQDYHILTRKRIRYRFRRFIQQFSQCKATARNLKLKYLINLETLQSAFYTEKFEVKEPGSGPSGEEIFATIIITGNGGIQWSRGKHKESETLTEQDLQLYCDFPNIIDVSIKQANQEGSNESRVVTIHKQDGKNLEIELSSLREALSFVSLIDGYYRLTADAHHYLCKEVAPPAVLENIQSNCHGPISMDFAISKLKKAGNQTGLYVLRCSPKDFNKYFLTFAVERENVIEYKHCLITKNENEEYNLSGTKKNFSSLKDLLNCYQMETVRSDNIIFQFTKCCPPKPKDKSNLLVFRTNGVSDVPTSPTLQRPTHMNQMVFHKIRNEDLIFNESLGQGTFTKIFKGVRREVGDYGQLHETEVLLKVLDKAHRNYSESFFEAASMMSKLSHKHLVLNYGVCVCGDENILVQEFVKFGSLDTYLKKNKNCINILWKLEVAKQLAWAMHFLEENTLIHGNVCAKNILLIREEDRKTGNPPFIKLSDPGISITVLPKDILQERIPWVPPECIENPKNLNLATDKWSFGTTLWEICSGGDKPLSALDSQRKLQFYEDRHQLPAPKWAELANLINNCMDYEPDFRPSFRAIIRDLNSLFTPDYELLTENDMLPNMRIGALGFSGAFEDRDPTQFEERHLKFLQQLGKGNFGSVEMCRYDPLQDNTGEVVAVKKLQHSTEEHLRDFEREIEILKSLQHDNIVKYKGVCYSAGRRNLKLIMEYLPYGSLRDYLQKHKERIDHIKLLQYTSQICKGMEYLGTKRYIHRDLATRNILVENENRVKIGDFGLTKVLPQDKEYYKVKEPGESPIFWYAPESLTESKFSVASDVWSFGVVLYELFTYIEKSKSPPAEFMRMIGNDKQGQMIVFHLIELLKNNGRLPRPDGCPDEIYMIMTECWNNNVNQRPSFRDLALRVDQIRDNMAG
Sequence of JAK1 protein kinase (P23458 whole entry): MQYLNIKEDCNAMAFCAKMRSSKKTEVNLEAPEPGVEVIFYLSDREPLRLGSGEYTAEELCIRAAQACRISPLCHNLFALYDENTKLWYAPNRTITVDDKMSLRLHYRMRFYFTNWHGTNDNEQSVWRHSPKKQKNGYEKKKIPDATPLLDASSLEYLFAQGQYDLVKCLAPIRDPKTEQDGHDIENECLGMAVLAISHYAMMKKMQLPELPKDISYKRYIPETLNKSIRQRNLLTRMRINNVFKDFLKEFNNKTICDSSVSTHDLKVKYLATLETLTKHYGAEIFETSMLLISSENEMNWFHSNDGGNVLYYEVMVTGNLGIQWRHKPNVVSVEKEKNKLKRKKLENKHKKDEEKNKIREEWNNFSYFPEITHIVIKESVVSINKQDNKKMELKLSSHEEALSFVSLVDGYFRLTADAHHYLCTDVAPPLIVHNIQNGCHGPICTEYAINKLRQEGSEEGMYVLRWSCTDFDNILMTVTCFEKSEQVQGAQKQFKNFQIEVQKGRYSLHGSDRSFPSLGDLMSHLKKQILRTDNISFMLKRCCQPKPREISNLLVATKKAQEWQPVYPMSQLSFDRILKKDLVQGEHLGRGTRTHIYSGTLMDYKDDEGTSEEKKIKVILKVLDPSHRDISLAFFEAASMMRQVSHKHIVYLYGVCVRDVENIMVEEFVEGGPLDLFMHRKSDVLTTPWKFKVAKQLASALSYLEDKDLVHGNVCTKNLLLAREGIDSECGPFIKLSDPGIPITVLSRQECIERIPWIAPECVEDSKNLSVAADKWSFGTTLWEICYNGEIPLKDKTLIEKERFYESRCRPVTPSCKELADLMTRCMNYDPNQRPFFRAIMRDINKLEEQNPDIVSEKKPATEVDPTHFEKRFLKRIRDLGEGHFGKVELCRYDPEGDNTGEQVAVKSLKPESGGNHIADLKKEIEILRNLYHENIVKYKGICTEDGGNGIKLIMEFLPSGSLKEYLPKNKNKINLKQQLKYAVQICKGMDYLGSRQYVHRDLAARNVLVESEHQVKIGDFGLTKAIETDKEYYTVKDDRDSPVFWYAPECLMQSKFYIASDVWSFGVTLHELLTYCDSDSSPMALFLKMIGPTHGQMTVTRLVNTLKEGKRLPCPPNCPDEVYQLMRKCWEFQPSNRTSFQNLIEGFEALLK
Description for JAK2 protein kinase: (§1) Recombinant humanized JAK1, JAK2 and JAK3 protease were all purchased from Life technology. LANCE Ultra ULight™-JAK-1(Tyr1023) peptide and LANCE Eu-W1024 Anti-phosphotyrosine (PT66) were both purchased from PerkinElmer. Envision (PerkinElmer) was used to read a plate.
(§2) The reading was converted into a suppression ratio as follow equation: (%)=(Min−Ratio)/(Max−Min)*100%.
Protocol for JAK3: as §1
0.05 nM protein kinase, 50 nM LANCE Ultra ULight™-JAK-1(Tyr1023) peptide, 4 uM ATP, 50 mM HEPES (pH7.5), 10 mM MgCl2, 1 mM EGTA, 2 mM DTT, and 0.01% BRIJ-35.
as §2

On to `CN(c1ncnc2[nH]ccc12)N1CCCC(N2CCCC2=O)C1` (stereo not shown) [WX29, 1-[1-[methyl(7H-pyrrolo[2,3-d]pyrimidin-4-yl)amino]-3-piperidinyl]pyrrolid-2-one], for which the IC50 against JAK3 is 100 to 1000 nM; on JAK2 protein kinase, greater than 1000 nM; on JAK1 protein kinase, greater than 1000 nM.
For `CN(c1ncnc2[nH]ccc12)N1CCCC(CC(=O)NCC#N)C1` (stereo not shown) [WX18], the results for the IC50 on JAK3, at JAK2 protein kinase and against JAK1 protein kinase were 100 to 1000 nM, greater than 1000 nM and 100 to 1000 nM, respectively.
Consider `N#CCC(=O)N1CC2CCN(Nc3ncnc4[nH]ccc34)CC2C1` (stereo not shown) [WX55, 3-[5-(7H-pyrrolo[2,3-d]pyrimidin-4-ylamino)-hexahydro-1H-pyrrolo[3,4-c]pyridin-2-yl]3-oxopropanenitrile], for which the IC50 against JAK3 was greater than 1000 nM; on JAK2 protein kinase, greater than 1000 nM; against JAK1 protein kinase, 100 to 1000 nM.
For the compound `CN(c1ncnc2[nH]ccc12)N1CCCC(C(=O)NCC(F)(F)C(F)(F)F)C1` (stereo not shown) [WX46, 1-[methyl(7H-pyrrole[2,3-d]pyrimidine-4-)amino]-N-(2,2,3,3,3-pentafluoropropyl)piperidyl-3-formamide], the IC50 on JAK3 is 10 to 100 nM; against JAK2 protein kinase it was 10 to 100 nM; at JAK1 protein kinase it was no more than 10 nM.
`CN(c1ncnc2[nH]ccc12)N1CCCC(C(=O)NCCC#N)C1` (stereo not shown) [WX16, N-(cyanoethyl)-1-(methyl(1H-pyrrole[2,3-d]pyridyl-4-)amino)piperidyl-3-formamide]: the half-inhibitory concentration (IC50) was 100 to 1000 nM against JAK3 and 10 to 100 nM at JAK1 protein kinase.
In the case of `O=C(CC(F)(F)F)N1CCCN(Nc2ncnc3[nH]ccc23)CC1` [WX35, L-(4-((7H-pyrrolo[2,3-d]pyrimidin-4-yl)amino)-diazepan-1-yl)-3,3,3-trifluorotrifluoropropan-1-one], the IC50 at JAK3, against JAK2 protein kinase and against JAK1 protein kinase was greater than 1000 nM each time.
On to `CN(c1ncnc2[nH]ccc12)N1CCC(C(=O)NCC(F)(F)F)C1` (single isomer, unassigned) [WX32, (R or S)-1-[methyl(7H-pyrrolo[2,3-d]pyrimidin-4-yl)amino]-N-(2,2,2-trifluoroethyl) pyrrolidyl-3-formamide], for which the IC50 at JAK3 was 10 to 100 nM; on JAK2 protein kinase, less than 10 nM; on JAK1 protein kinase, less than 10 nM.
For `CN(c1ncnc2[nH]ccc12)N1CCC(C(=O)NCC(F)(F)F)C1` (stereo not shown) [WX31, 1-[methyl(7H-pyrrolo[2,3-d]pyrimidin-4-yl)amino]-N-(2,2,2-trifluoroethyl)pyrrolidyl-3-formamide], the IC50 against JAK3 is 10 to 100 nM; against JAK2 protein kinase, 10 to 100 nM; on JAK1 protein kinase it was less than 10 nM.
As to `CN(c1ncnc2[nH]ccc12)N1CCCC(C)(C(=O)NCC(F)(F)F)C1` (stereo not shown) [WX38, 3-methyl-11-(methyl(7H-pyrrolo[2,3-d]pyrimidine-4-yl)amino)-N-(2,2,2-trifluoroethyl)piperidyl-3-formamide], the 50% inhibitory concentration (IC50) against JAK3, against JAK2 protein kinase and at JAK1 protein kinase was greater than 1000 nM throughout.
With `CN(c1ncnc2[nH]ccc12)N1CCCC(NC(=O)CC#N)C1` (stereo not shown) [WX12], the IC50 on JAK3 is 100 to 1000 nM; on JAK2 protein kinase, greater than 1000 nM; against JAK1 protein kinase it was 100 to 1000 nM.
`CN(c1ccnc2[nH]ccc12)N1CCCC(C(=O)NCC(F)(F)F)C1` (stereo not shown) [WX15, N-(2,2,2-trifluoroethyl)-1-(methyl(1H-pyrrole[2,3-d]pyridin-4-yl)amino)piperidyl-3-formamide]: the 50% inhibitory concentration (IC50) on JAK3 fell in the range of 100 to 1000 nM; on JAK2 protein kinase, 100 to 1000 nM; against JAK1 protein kinase it was 10 to 100 nM.
On to `O=C(NCC(F)(F)F)C1CN(Nc2ncnc3[nH]ccc23)CCO1` (stereo not shown) [WX40, 4-((7H-pyrrolo[2,3-d]pyrimidin-4-yl)amino)-N-(2,2,2-trifluoroethyl)morpholine-2-form amide], for which the concentration for half-maximal inhibition (IC50) was greater than 1000 nM at JAK3, greater than 1000 nM against JAK2 protein kinase and 10 to 100 nM at JAK1 protein kinase.
Consider `COCNC(=O)C1CCCN(N(C)c2ncnc3[nH]ccc23)C1` (stereo not shown) [WX42], for which the 50% inhibitory concentration (IC50) against JAK3 was 10 to 100 nM; against JAK2 protein kinase, 100 to 1000 nM; at JAK1 protein kinase, 10 to 100 nM.
For `CN(c1ncnc2[nH]ccc12)N1CCC(C(=O)NCC#N)CC1` [WX20, N-(cyanomethyl)-1-(methyl(7H-pyrrolo[2,3-d]pyrimidin-4-yl)amino)piperidyl-4-formamide], the values for the half-inhibitory concentration (IC50) against JAK3, against JAK2 protein kinase and at JAK1 protein kinase were 10 to 100 nM, 100 to 1000 nM and 10 to 100 nM, respectively.
Consider `CN(c1ncnc2[nH]ccc12)N1CCCC(CC(=O)NCC(F)(F)F)C1` (stereo not shown) [WX17], for which the 50% inhibitory concentration (IC50) against JAK3 is 100 to 1000 nM; against JAK2 protein kinase it was greater than 1000 nM; at JAK1 protein kinase, 100 to 1000 nM.
With `N#CCNC(=O)C1CCN(Nc2ncnc3[nH]ccc23)CC1` [WX21], the figures for the IC50 against JAK3, on JAK2 protein kinase and against JAK1 protein kinase were 100 to 1000 nM, greater than 1000 nM and 10 to 100 nM, respectively.
On to `CC1CCC(C(=O)NCC#N)CN1N(C)c1ncnc2[nH]ccc12` (stereo not shown) [WX26, N-(cyanomethyl)-6-methyl-1-[methyl(7H-pyrrolo[2,3-d]pyrimidin-4-yl)amino]piperidyl-3-formamide], for which the IC50 was 100 to 1000 nM against JAK3, greater than 1000 nM on JAK2 protein kinase and 100 to 1000 nM against JAK1 protein kinase.
As to `CN(c1ncnc2[nH]ccc12)N1CCCC(NC(=O)CC(F)(F)F)C1` (stereo not shown) [WX13, 3,3,3-trifluoroethyl-N-(1-(methyl(7H-pyrrolo[2,3-d]pyrimidin-4-yl)amino)piperidyl-3-)propylcarboxamide], the concentration for half-maximal inhibition (IC50) against JAK3 is 100 to 1000 nM; against JAK2 protein kinase, greater than 1000 nM; on JAK1 protein kinase it was 100 to 1000 nM.
As to `CN(c1ncnc2[nH]ccc12)N1CCCN(C(=O)CC#N)CC1` [WX34, 3-(4-(methyl(7H-pyrrolo[2,3-d]pyrimidin-4-yl)amino)-1,4-diazepan-1-yl)-3-carbonyl-propionitrile], the IC50 at JAK3, on JAK2 protein kinase and at JAK1 protein kinase was 100 to 1000 nM throughout.
In the case of `CN(c1ncnc2[nH]ccc12)N1CCCC(CC#N)C1` (stereo not shown) [WX44, 2-[1-[methyl[7H-pyrrole[2,3-d]pyrimidine-4-]amino]-3-piperidyl]acetonitrile], the IC50 against JAK3 was 100 to 1000 nM; on JAK2 protein kinase, 100 to 1000 nM; on JAK1 protein kinase, 10 to 100 nM.
`CSCNC(=O)C1CCCN(N(C)c2ncnc3[nH]ccc23)C1` (stereo not shown) [WX43]: the values for the IC50 on JAK3, at JAK2 protein kinase and against JAK1 protein kinase were 10 to 100 nM, 10 to 100 nM and less than 10 nM, respectively.
For the compound `CCOC(=O)C1CCCN(N(C)c2ncnc3[nH]ccc23)C1` (stereo not shown) [WX10, Ethyl 1-[methyl(7H-pyrrolo[2,3-d]pyrimidin-4-yl)amino]piperidyl-3-carboxylate], the IC50 on JAK3 was in the range of 10 to 100 nM; at JAK2 protein kinase it was 100 to 1000 nM; on JAK1 protein kinase, 10 to 100 nM.
For the compound `CN(c1ncnc2[nH]ccc12)N1CCCC(C)(C(=O)NCC#N)C1` (stereo not shown) [WX37, N-(cyanomethyl)-3-methyl-1-[methyl(7H-pyrrolo[2,3-d]pyrimidie-yl)amino]piperidyl-3-formamide], the IC50 on JAK3, against JAK2 protein kinase and against JAK1 protein kinase was greater than 1000 nM each time.
Consider `N#CCNC(=O)C1CCCN(Nc2ncnc3[nH]ccc23)C1` (stereo not shown) [WX03, N-(cyanomethyl)-1-(7H-pyrrolo[2,3-d]pyrimidin-4-yl-amino)piperidyl-3-formamide], for which the 50% inhibitory concentration (IC50) was 10 to 100 nM against JAK3, 10 to 100 nM on JAK2 protein kinase and less than 10 nM against JAK1 protein kinase.
On to `CN(c1ncnc2[nH]ccc12)N1CCC(C(=O)NCC(F)(F)F)C1` (single isomer, unassigned) [WX33, (S or R)-1-[methyl(7H-pyrrolo[2,3-d]pyrimidin-4-yl)amino]-N-(2,2,2-trifluoroethyl)pyrrolidyl-3-formamide], for which the IC50 against JAK2 protein kinase fell in the range of 100 to 1000 nM; against JAK1 protein kinase, 10 to 100 nM.

Values taken from patent publication US10617690B2 (priority 2015, dated 2020).
